Reference: US8680059B2, “Oligopeptide acetate and formulations thereof” (Biotempt B.V., priority 1998, dated 2014)

Test system: mice, 25 minutes renal ischemia/reperfusion
Assay: Mouse renal ischemia reperfusion test (mortality, BUN/serum urea)
Assay type: in vivo
Set-up: BUN, mean / Urea level: unit not given here
Settings: for BUN, mean: 5 mg/kg i.v.
Method: SEQ ID NO:2 was tested and compared with PBS (control) in a double blind animal study for the peptide's relative ability to aid recovery in a mouse renal ischemia reperfusion test. In this test, the mice were anesthetized, and one kidney from each mouse was removed. The other kidney was tied off for 25 minutes, and the serum urea levels were allowed to increase. Both before and after tying off, the peptide was administered to thirty (30) different mice (5 mg oligopeptide/kg body mass intravenously), after which, the mortality of the mice was determined for each oligopeptide as well as was the BUN concentration at two hours, 24 hours and 72 hours.
Under inhalation anesthesia, the left kidney with its artery and vein was isolated and occluded for 25 minutes using a microvascular clamp. During surgery animals were placed on a heating path to maintain body temperature at 37° C. Five minutes before placing the clamp, and 5 minutes before releasing the clamp, 5 mg/kg of peptide, dissolved in 0.1 mL of sterile saline, was administered intravenously. After reperfusion of the left kidney the right kidney was removed. Kidney function was assessed by measuring blood urea nitrogen before clamping, and at 2, 24, and 72 hours after reperfusion.
To determine dose-response relationships SEQ ID NO:2, was tested in a dose-response manner in the mice test as described above. Peptides were tested at 0.3, 1, 3, 10 and 30 mg/kg dosages given as described in Example I. Serum urea levels are presented in Table 3.

AQGV [tetrapeptide derived from human chorionic gonadotropin, alanine replacement of LQGV]
Mortality in dose-response experiment (0.3 mg/kg, 24 h): 0-9 | Urea level (0.3 mg/kg, 24 h): 62.4 | Mortality in dose-response experiment (0.3 mg/kg, 72 h): 2-10 | Urea level (0.3 mg/kg, 72 h): 86.7 | Mortality in dose-response experiment (1.0 mg/kg, 24 h): 0-10 | Urea level (1.0 mg/kg, 24 h): 50.0 | Mortality in dose-response experiment (1.0 mg/kg, 72 h): 1-8 | Urea level (1.0 mg/kg, 72 h): 52.6 | Mortality in dose-response experiment (3.0 mg/kg, 24 h): 1-10 | Urea level (3.0 mg/kg, 24 h): 37.4 | Mortality in dose-response experiment (3.0 mg/kg, 72 h): 0-10 | Urea level (3.0 mg/kg, 72 h): 19.6 | mortality at 72 hours post-reperfusion (5 mg/kg i.v. before and after clamping, dead/total): 0/10 | Mortality in dose-response experiment (10.0 mg/kg, 24 h): 0-10 | Urea level (10.0 mg/kg, 24 h): 41.2 | Mortality in dose-response experiment (10.0 mg/kg, 72 h): 0-8 | Urea level (10.0 mg/kg, 72 h): 37.1 | Mortality in dose-response experiment (30.0 mg/kg, 24 h): 0-8 | Urea level (30.0 mg/kg, 24 h): 47.8 | Mortality in dose-response experiment (30.0 mg/kg, 72 h): 3-10 | Urea level (30.0 mg/kg, 72 h): 38.0 | BUN, mean (2 hr after reperfusion): 16.62 | BUN, mean (24 hr after reperfusion): 26.36 | BUN, mean (72 hr after reperfusion): 22.31 | BUN, mean (t = 0 hr (before clamping)): 9.713
